Results taken from patent US10173991B2, “Sulfone amide linked benzothiazole inhibitors of endothelial lipase” (BRISTOL-MYERS SQUIBB COMPANY, priority 2014, dated 2019).

target: Endothelial lipase (EL) (Homo sapiens (Human), UniProt Q9Y5X9); experiment: Endothelial lipase (EL) enzymatic assay with fluorescent substrate A10070 in DMPG vesicles; format: biochemical; settings: not given
In short: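 Vesicles prepared: A10070 dried with DMPG, resuspended in HEPES pH 8.0/NaCl/EDTA, sonicated on ice. Enzyme incubated with compound 30 min at 37° C. Reaction started with 1:10 diluted vesicles. Fluorescence (490/530 nm) followed 60 min; slope from 300–900 secs gives rate.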

Sequence of Endothelial lipase (EL) (Q9Y5X9 21-500): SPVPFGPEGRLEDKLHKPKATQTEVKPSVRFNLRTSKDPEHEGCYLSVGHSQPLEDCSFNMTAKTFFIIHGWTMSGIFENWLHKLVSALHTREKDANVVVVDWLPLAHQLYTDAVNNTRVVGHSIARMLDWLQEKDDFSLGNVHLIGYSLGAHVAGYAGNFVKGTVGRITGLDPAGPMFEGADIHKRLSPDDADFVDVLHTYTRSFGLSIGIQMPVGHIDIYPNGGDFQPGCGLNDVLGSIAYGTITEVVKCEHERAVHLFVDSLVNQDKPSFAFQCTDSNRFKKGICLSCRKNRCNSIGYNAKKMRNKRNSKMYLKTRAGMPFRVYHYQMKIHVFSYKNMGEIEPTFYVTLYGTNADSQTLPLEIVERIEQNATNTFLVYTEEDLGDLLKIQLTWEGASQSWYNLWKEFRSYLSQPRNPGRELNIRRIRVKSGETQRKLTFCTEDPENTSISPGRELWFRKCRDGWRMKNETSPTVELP

IC50 [µM]	Structure (SMILES)
0.021	COCCS(=O)(=O)C(C(=O)NCC(=O)NC1CC1)c1nc2cc(-c3ccc(F)nc3)c(C)cc2s1 (stereo not drawn) [Example 182, N-[(cyclopropyl-carbamoyl)methyl]-2-[5-(6-fluoropyridin-3-yl)-6-methyl-1,3-benzothiazol-2-yl]-2-(2-methoxyethane-sulfonyl) acetamide]
0.005	COCCS(=O)(=O)C(C(=O)NCC(=O)NC1CC1)c1nc2cc(-c3cccnc3C(F)(F)F)ccc2s1 (stereo not drawn) [Example 61, N-[(cyclopropyl-carbamoyl)methyl]-2-(2-methoxyethane-sulfonyl)-2-{5-[2-(trifluoromethyl)pyridin-3-yl]-1,3-benzothiazol-2-yl}acetamide]
0.067	COCCS(=O)(=O)C(C(=O)NCC(=O)NC1CC1)c1nc2cc(F)c(-c3ccc(-c4nnnn4C)cc3)cc2s1 (stereo not drawn) [Example 594, N-[(cyclopropyl-carbamoyl)methyl]-2-{5-fluoro-6-[4-(1-methyl-1H-1,2,3,4-tetrazol-5-yl)phenyl]-1,3-benzothiazol-2-yl}-2-(2-methoxyethane-sulfonyl)acetamide]
0.078	CC(C)(C)OC(=O)N1CCC(S(=O)(=O)C(C(=O)NCC(=O)NC2CC2)c2nc3ccc(-c4ccc(F)nc4)cc3s2)CC1 (stereo not drawn) [Example 222, tert-butyl 4-({[(cyclopropyl-carbamoyl)methyl]carbamoyl}[6-(6-fluoropyridin-3-yl)-1,3-benzothiazol-2-yl]methanesulfonyl) piperidine-1-carboxylate]
0.016	Cn1cnc2ccc(-c3cc4sc(C(C(=O)NCC(=O)NC5CC5)S(C)(=O)=O)nc4cc3F)cc21 (stereo not drawn) [Example 369, N-[(cyclopropyl-carbamoyl)methyl]-2-[5-fluoro-6-(1-methyl-1H-1,3-benzodiazol-6-yl)-1,3-benzothiazol-2-yl]-2-methanesulfonyl-acetamide]
0.048	COCCS(=O)(=O)C(C(=O)NCC(=O)NC1CC1)c1nc2ccc(-c3ccnc(OC)c3F)cc2s1 (stereo not drawn) [Example 343, N-[(cyclopropyl-carbamoyl)methyl]-2-[6-(3-fluoro-2-methoxypyridin-4-yl)-1,3-benzothiazol-2-yl]-2-(2-methoxyethane-sulfonyl)acetamide]
0.007	COCCS(=O)(=O)C(C(=O)NCC(=O)NC1CC1)c1nc2ccc(-c3ccccc3)cc2s1 (stereo not drawn) [Example 305, N-[(cyclopropyl-carbamoyl)methyl]-2-(2-methoxyethane-sulfonyl)-2-(6-phenyl-1,3-benzothiazol-2-yl) acetamide]
0.048	O=C(CNC(=O)C(c1nc2cc(F)c(-c3ccc(F)nc3)cc2s1)S(=O)(=O)N1CCOCC1)NC1CC1 (stereo not drawn) [Example 486, N-[(cyclopropyl-carbamoyl)methyl]-2-[5-fluoro-6-(6-fluoropyridin-3-yl)-1,3-benzothiazol-2-yl]-2-(morpholine-4-sulfonyl)acetamide]
0.023	CC(C)n1cc(-c2cc3sc(C(C(=O)NCC(=O)NC4CC4)S(C)(=O)=O)nc3cc2F)ccc1=O (stereo not drawn) [Example 195, N-[(cyclopropyl-carbamoyl)methyl]-2-{5-fluoro-6-[6-oxo-1-(propan-2-yl)-1,6-dihydropyridin-3-yl]-1,3-benzothiazol-2-yl}-2-methanesulfonyl-acetamide]
0.005	COCCS(=O)(=O)C(C(=O)NCC(=O)NC1CC1)c1nc2cc(F)c(-c3ccc4c(c3)C(=O)NC4)cc2s1 (stereo not drawn) [Example 154, N-[(cyclopropyl-carbamoyl)methyl]-2-[5-fluoro-6-(3-oxo-2,3-dihydro-1H-isoindol-5-yl)-1,3-benzothiazol-2-yl]-2-(2-methoxyethane-sulfonyl) acetamide]
0.003	Cc1cc2nc(C(C(=O)NCC(=O)NC3CC3)S(=O)(=O)C(C)C)sc2cc1-c1ccc(C(=O)N2CCC2)cc1 (stereo not drawn) [Example 259, 2-{6-[4-(azetidine-1-carbonyl)phenyl]-5-methyl-1,3-benzothiazol-2-yl}-N-[(cyclopropyl-carbamoyl)methyl]-2-(propane-2-sulfonyl)acetamide]
0.037	CS(=O)(=O)Nc1ccc(-c2cc3sc(C(C(=O)NCC(=O)NC4CC4)S(=O)(=O)CCC(F)(F)F)nc3cc2F)cc1 (stereo not drawn) [Example 43, N-[(cyclopropyl-carbamoyl)methyl]-2-[5-fluoro-6-(4-methanesulfon-amidophenyl)-1,3-benzothiazol-2-yl]-2-(3,3,3-trifluoropropane-sulfonyl) acetamide]
0.002	COCCS(=O)(=O)C(C(=O)NCC(=O)NC1CC1)c1nc2cc(F)c(-c3ccc4[nH]c(=O)ccc4c3)cc2s1 (stereo not drawn) [Example 149, N-[(cyclopropyl-carbamoyl)methyl]-2-[5-fluoro-6-(2-oxo-1,2-dihydroquinolin-6-yl)-1,3-benzothiazol-2-yl]-2-(2-methoxyethane-sulfonyl) acetamide]
0.008	O=C(CNC(=O)C(c1nc2ccc(-c3ccc(OCC4CC4)nc3)cc2s1)S(=O)(=O)Cc1ccc(F)cc1)NC1CC1 (stereo not drawn) [Example 205, N-[(cyclopropyl-carbamoyl)methyl]-2-{6-[6-(cyclopropyl-methoxy)pyridin-3-yl]-1,3-benzothiazol-2-yl}-2[(4-fluorophenyl)methanesulfonyl] acetamide]
0.014	COCCS(=O)(=O)C(C(=O)NCC(=O)NC1CC1)c1nc2cc(F)c(-c3ccc(C(=O)N4CCOCC4)cc3)cc2s1 (stereo not drawn) [Example 161, N-[(cyclopropyl-carbamoyl)methyl]-2-{5-fluoro-6-[4-(morpholine-4-carbonyl)phenyl]-1,3-benzothiazol-2-yl}-2-(2-methoxyethane-sulfonyl) acetamide]
0.046	COCCS(=O)(=O)C(C(=O)NCC(=O)NC1CC1)c1nc2ccc(-c3ccc(C(N)=O)cc3)cc2s1 (stereo not drawn) [Example 329, 4-[2-({[(cyclopropyl-carbamoyl)methyl]carbamoyl}(2-methoxyethane-sulfonyl)methyl)-1,3-benzothiazol-6-yl]benzamide]
0.004	CC(C)S(=O)(=O)C(C(=O)NCC(=O)NC1CC1)c1nc2cc(F)c(-c3ccc(NC(=O)CCc4ccccc4)cc3)cc2s1 (stereo not drawn) [Example 578, N-{4-[2-({[(cyclopropyl-carbamoyl)methyl]carbamoyl} (propane-2-sulfonyl)methyl)-5-fluoro-1,3-benzothiazol-6-yl]phenyl}-3-phenyl-propanamide]
0.117	O=C(CNC(=O)C(c1nc2ccc(-c3cncnc3)cc2s1)S(=O)(=O)Cc1ccc(F)cc1)NC1CC1 (stereo not drawn) [Example 517, N-[(cyclopropyl-carbamoyl)methyl]-2-[(4-fluorophenyl)methanesulfonyl]-2-[6-(pyrimidin-5-yl)-1,3-benzothiazol-2-yl]acetamide]
0.003	O=C(CNC(=O)C(c1nc2cc(F)c(-c3cccc(-c4cc[nH]n4)c3)cc2s1)S(=O)(=O)CCC(F)(F)F)NC1CC1 (stereo not drawn) [Example 143, N-[(cyclopropyl-carbamoyl)methyl]-2-{5-fluoro-6-[3-(1H-pyrazol-3-yl)phenyl]-1,3-benzothiazol-2-yl}-2-(3,3,3-trifluoropropane-sulfonyl) acetamide]
0.02	COCCS(=O)(=O)C(C(=O)NCC(=O)NC1CC1)c1nc2cc(C(F)(F)F)c(-c3ccc(C(=O)N4CCOCC4)cc3)cc2s1 (stereo not drawn) [Example 166, N-[(cyclopropyl-carbamoyl)methyl]-2-(2-methoxyethane-sulfonyl)-2-{6-[4-(morpholine-4-arbonyl)phenyl]-5-(trifluoromethyl)-1,3-benzothiazol-2-yl}acetamide]
0.016	O=C(CNC(=O)C(c1nc2ccc(-c3ccc(F)nc3)cc2s1)S(=O)(=O)Cc1ccc(C(F)(F)F)cc1)NC1CC1 (stereo not drawn) [Example 512, N-[(cyclopropyl-carbamoyl)methyl]-2-[6-(6-fluoropyridin-3-yl)-1,3-benzothiazol-2-yl]-2-{[4-(trifluoromethyl)phenyl]methanesulfonyl} acetamide]
0.015	Cc1cc(F)ncc1-c1cc2sc(C(C(=O)NCC(=O)NC3CC3)S(C)(=O)=O)nc2cc1F (stereo not drawn) [Example 319, N-[(cyclopropyl-carbamoyl)methyl]-2-[5-fluoro-6-(6-fluoro-4-methylpyridin-3-yl)-1,3-benzothiazol-2-yl]-2-methanesulfonyl-acetamide]
0.022	COCCS(=O)(=O)C(C(=O)NCC(=O)NCC1CC1)c1nc2ccc(-c3ccc(F)nc3)cc2s1 (stereo not drawn) [Example 382, N-{[(cyclopropyl-methyl)carbamoyl]methyl}-2-[6-(6-fluoropyridin-3-yl)-1,3-benzothiazol-2-yl]-2-(2-methoxyethane-sulfonyl)acetamide]
0.012	COCCS(=O)(=O)C(C(=O)NCC(=O)NC1CC1)c1nc2cc(F)c(-c3ccc(=O)n(C(C)C)c3)cc2s1 (stereo not drawn) [Example 160, N-[(cyclopropyl-carbamoyl)methyl]-2-{5-fluoro-6-[6-oxo-1-(propan-2-yl)-1,6-dihydropyridin-3-yl]-1,3-benzothiazol-2-yl}-2-(2-methoxyethane-sulfonyl) acetamide]

same assay, conditions: EL from conditioned media of HT-1080 cells; 30 min preincubation at 37° C.

IC50 [µM]	Structure (SMILES)
0.204	COCCS(=O)(=O)C(C(=O)NCC(=O)NC1CC1)c1nc2cc(C(=O)N3CCOCC3)c(F)cc2s1 (stereo not drawn) [Example 425, N-(2-(Cyclopropylamino)-2-oxoethyl)-2-(6-fluoro-5-(morpholine-4-carbonyl)benzo[d]thiazol-2-yl)-2-((2-methoxyethyl)sulfonyl)acetamide]
0.033	COCCS(=O)(=O)C(C(=O)NCC(=O)NC1CC1)c1nc2ccc(-c3ccc(C(=O)N(C)C4CC4)cc3)cc2s1 (stereo not drawn) [Example 393, N-Cyclopropyl-4-(2-(2-((2-(cyclopropylamino)-2-oxoethyl)amino)-1-((2-methoxyethyl)sulfonyl)-2-oxoethyl)benzo[d]thiazol-6-yl)-N-methylbenzamide]
0.11	COC(=O)Nc1ccccc1-c1cc2sc(C(C(=O)NCC(=O)NC3CC3)S(C)(=O)=O)nc2cc1F (stereo not drawn) [Example 532, Methyl N-{2-[2({[(cyclopropylcarbamoyl)methyl]carbamoyl}(methanesulfonyl)methyl)-5-fluoro-1,3-benzothiazol-6-yl]phenyl}carbamate]
